Laboratory results published in PubChem BioAssay AID651861 (The Scripps Research Institute Molecular Screening Center, 2012).

Columns and labels:
Assay in all cases: binding mode on PAD1, PAD2, PAD3, biochemical, colorimetric, substrate dialysis, late-stage follow-up (AID 651861); call rule not given here
[1] = biological target: Protein-arginine deiminase type-1 (Homo sapiens) (UniProt Q9ULC6); details: recombinant PAD1-3, post-dialysis BAEE citrulline colorimetric; PAD1; at 100 µM; hits give low values
Protein-arginine deiminase type-1 (Homo sapiens), sequence (Q9ULC6 whole entry, looked up): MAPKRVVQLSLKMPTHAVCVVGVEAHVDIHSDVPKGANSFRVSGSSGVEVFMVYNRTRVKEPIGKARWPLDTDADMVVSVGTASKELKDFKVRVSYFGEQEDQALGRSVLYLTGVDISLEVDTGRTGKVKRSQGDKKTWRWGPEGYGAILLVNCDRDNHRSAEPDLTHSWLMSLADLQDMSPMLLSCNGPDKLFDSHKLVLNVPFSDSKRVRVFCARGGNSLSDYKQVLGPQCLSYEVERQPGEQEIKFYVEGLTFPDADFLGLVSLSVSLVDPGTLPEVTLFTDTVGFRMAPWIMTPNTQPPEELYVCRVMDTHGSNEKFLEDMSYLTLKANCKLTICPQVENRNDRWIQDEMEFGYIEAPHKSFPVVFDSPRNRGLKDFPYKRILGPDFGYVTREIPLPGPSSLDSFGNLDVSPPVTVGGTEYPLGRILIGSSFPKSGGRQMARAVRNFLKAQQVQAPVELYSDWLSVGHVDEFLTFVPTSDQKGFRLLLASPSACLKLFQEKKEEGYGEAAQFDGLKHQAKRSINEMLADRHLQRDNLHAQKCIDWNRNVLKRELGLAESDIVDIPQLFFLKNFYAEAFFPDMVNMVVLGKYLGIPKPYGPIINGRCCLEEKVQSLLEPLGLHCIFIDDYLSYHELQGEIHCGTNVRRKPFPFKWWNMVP

[2] = biological target: Protein-arginine deiminase type-2 (Homo sapiens) (UniProt Q9Y2J8); details: recombinant PAD1-3, post-dialysis BAEE citrulline colorimetric; PAD2; at 100 µM; hits give low values
Protein-arginine deiminase type-2 (Homo sapiens), sequence (Q9Y2J8 whole entry, looked up): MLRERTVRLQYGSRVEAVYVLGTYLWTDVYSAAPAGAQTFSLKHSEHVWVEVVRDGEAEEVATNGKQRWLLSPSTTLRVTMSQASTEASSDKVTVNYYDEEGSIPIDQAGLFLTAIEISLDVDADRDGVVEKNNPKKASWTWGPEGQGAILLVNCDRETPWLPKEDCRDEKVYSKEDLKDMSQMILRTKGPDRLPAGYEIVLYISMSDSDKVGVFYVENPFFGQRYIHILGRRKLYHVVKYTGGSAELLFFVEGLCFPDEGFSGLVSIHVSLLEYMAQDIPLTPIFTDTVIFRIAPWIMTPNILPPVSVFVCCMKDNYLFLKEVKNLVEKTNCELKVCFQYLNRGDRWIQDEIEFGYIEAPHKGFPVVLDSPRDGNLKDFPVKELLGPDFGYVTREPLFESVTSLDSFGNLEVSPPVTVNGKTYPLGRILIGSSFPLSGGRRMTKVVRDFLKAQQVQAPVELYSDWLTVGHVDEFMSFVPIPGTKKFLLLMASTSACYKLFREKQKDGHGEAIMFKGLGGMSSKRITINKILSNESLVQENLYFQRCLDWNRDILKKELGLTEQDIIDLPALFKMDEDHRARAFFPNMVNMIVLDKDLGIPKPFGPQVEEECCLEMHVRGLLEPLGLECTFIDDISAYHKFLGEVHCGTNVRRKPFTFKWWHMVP

[3] = biological target: Protein-arginine deiminase type-3 (Homo sapiens) (UniProt Q9ULW8); details: recombinant PAD1-3, post-dialysis BAEE citrulline colorimetric; PAD3; at 100 µM; hits give low values
Protein-arginine deiminase type-3 (Homo sapiens), sequence (Q9ULW8 whole entry, looked up): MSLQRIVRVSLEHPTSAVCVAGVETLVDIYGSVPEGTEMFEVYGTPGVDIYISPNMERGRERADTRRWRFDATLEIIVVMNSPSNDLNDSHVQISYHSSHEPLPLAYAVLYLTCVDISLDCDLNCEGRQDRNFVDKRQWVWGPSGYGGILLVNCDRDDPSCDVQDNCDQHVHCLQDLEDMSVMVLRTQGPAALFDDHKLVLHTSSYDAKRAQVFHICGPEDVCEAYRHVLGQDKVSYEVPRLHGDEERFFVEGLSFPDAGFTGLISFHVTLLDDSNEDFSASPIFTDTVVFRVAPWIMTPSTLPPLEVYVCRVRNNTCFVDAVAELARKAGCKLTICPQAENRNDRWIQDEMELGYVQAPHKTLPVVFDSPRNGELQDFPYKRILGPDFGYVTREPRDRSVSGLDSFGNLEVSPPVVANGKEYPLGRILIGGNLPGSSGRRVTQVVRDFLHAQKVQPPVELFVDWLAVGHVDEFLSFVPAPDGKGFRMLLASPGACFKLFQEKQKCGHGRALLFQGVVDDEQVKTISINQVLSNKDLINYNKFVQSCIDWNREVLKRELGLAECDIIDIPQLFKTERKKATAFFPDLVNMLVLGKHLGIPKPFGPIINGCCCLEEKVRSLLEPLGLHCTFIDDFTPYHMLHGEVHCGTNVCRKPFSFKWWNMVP

Measured: residual activity after dialysis

NC1=CC(=O)c2ccc(-c3cccc(C(=O)O)n3)nc2C1=O
active: [1] 10.2% | [2] 5.3% | [3] 1.2%
